The record followed here is PubChem BioAssay AID1996.

Converted amounts (≈) assume the structure as drawn.

The conditions of the series: buffer; pH 7.4; 200.0 µM.
For `O=[N+]([O-])c1ccc(C(O)C[n+]2ccccc2)cc1.[I-]` (configuration not stated), the kinetic solubility (commonly solubility judged after dilution from a stock solution rather than from solid) came to 52.1 µg/mL.

Regarding `CCN(C(=O)COC(=O)CNC(=O)c1ccc(Cl)cc1Cl)c1c(N)n(Cc2ccccc2)c(=O)[nH]c1=O`, the kinetic solubility was over 82.3 µg/mL. In turn, `Cc1cccc(-c2noc(-c3ccccc3C(=O)NCc3ccco3)n2)c1` had a solubility (kinetic) of 8.9 µg/mL (≈ 24.8 µM).

As for `CCn1c(=O)c(C(=O)Nc2ccccc2F)c(O)c2ccccc21`, the solubility (kinetic) worked out at 0.4 µg/mL (≈ 1.23 µM). Consider `CC1CC1C(=O)OCC(=O)Nc1ccc(Cl)cn1` (configuration not stated), for which the solubility (kinetic) is 27.6 µg/mL (≈ 103 µM). The compound `Clc1ccc(CN2CCCCCC2)cc1.O=C(O)C(=O)O` had a kinetic solubility of 24.9 µg/mL. As for `CCCC(C)NC(=S)Nc1cc(C)cc(C)c1` (configuration not stated), the solubility (kinetic) is 25.2 µg/mL (≈ 101 µM). Regarding `O=C(/C=C/c1cccc(F)c1)c1ccc(N2CCOCC2)cc1`, the kinetic solubility was found to be 5.8 µg/mL (≈ 18.6 µM). Take `CCOc1cc(C(=O)NC2CCCCCCC2)cc(OCC)c1OCC`: the solubility (kinetic) worked out at 2.3 µg/mL (≈ 6.33 µM). Take `CC(C)c1ccc(NC2CCCN(C(=O)c3ccsc3)C2)cc1` (configuration not stated): the kinetic solubility is over 49.3 µg/mL. With `COc1ccccc1C1CC(=O)NC(C)=C1C(=O)OC(C)C` (configuration not stated), the solubility (kinetic) turned out to be 28.4 µg/mL (≈ 93.6 µM). For `CC(C)(C)c1ccc(-c2noc(-c3ccno3)n2)cc1` the value was under 0.2 µg/mL; for `Cc1cc(Br)cc(Cl)c1OC(=O)c1ccncc1`, 9.5 µg/mL (≈ 29.1 µM).

`Cc1cc(OCC(=O)N2CCN(CC(=O)N3CCOCC3)CC2)c(C(C)C)cc1Cl` had a kinetic solubility of over 65.7 µg/mL. Turning to `NC(=O)c1ccc(OCC(=O)N2CCNC2=O)cc1`, the kinetic solubility was over 39.5 µg/mL.

Compound `O=S(=O)(Nc1ccccc1F)c1ccc(Cl)nc1` registered a solubility (kinetic) of over 43 µg/mL. Turning to `CC(C)c1ccc[n+](-c2nc([O-])sc2C=O)c1`, the kinetic solubility was found to be 27.4 µg/mL (≈ 110 µM). `Cc1c(C)[n+](=O)c2c(n1[O-])C(Br)CCC2Br` (configuration not stated) showed a kinetic solubility of over 52.8 µg/mL. As for `c1ccc(CSc2nc3ncccn3n2)cc1`, the kinetic solubility was over 36.3 µg/mL. In turn, `O=C(NCCCn1ccnc1)C(=O)c1c[nH]c2ccccc12` yielded a solubility (kinetic) of over 44.4 µg/mL. For `O=C(O)CSC(=S)N1CC2CC(C1)c1cccc(=O)n1C2` (configuration not stated) the value was over 48.7 µg/mL; for `O=[N+]([O-])c1cccc2nc(-c3ccccc3)c(-c3ccccc3)nc12`, under 0.2 µg/mL.

In the case of `CC1CCCN(Cc2ccc(OCc3ccccc3)cc2)C1` (configuration not stated), the kinetic solubility worked out at 31.5 µg/mL (≈ 107 µM). In the case of `Cc1ccc(C)c(N2C(=O)CC(Cc3ccccc3)C2=O)c1.Cl` (configuration not stated), the solubility (kinetic) was over 49.5 µg/mL. Turning to `COc1ccc(C(=O)COC(=O)c2c(C)noc2C)cc1Cl`, the kinetic solubility amounted to 2.9 µg/mL (≈ 8.96 µM). `Fc1ccccc1CN1CCC(Cc2ccccc2)CC1` registered a solubility (kinetic) of 25.9 µg/mL (≈ 91.4 µM). Under `CC(C)C1(CCNC(=O)c2cccs2)CCOC(C)(C)C1` (configuration not stated) stands 42 µg/mL (≈ 136 µM); under `Cc1cc(C)c(NC(=O)COC(=O)C2CCC(=O)N2)c(C)c1` (configuration not stated), over 45.7 µg/mL; under `CCCOc1ccc(C(=O)NC2CCSc3ccccc32)cc1` (configuration not stated), 1.6 µg/mL (≈ 4.89 µM). For `CCc1ccc(N2CCN(CCNC(=O)Nc3ccccc3)CC2)cc1` the value was 1.3 µg/mL (≈ 3.69 µM). `O=C(Nc1cccc(C(=O)O)c1)Nc1ccc2c(c1)OCO2`: the solubility (kinetic) is over 45 µg/mL.

For `N#CCc1nc(-c2cc3ccccc3oc2=O)cs1`, the solubility (kinetic) stood at 5.4 µg/mL (≈ 20.1 µM). The compound `COc1ccc2[nH]c(C(=O)NCCc3ccccc3)cc2c1` gave a kinetic solubility of 1 µg/mL (≈ 3.4 µM). On to `CCCOc1ccc(C2=CSC3=NCCN23)cc1[N+](=O)[O-]`, for which the kinetic solubility was over 45.8 µg/mL. For `COc1ccc(OCC(=O)Nc2ccc(N3CCC(C)CC3)cc2)cc1`, the solubility (kinetic) is under 0.4 µg/mL. Compound `O=C(Nc1ccc(F)c(Cl)c1)C1CC2CCC1C2` (configuration not stated) had a kinetic solubility of 2.8 µg/mL (≈ 10.5 µM).

`Cc1ccc(NS(=O)(=O)c2ccc3c(c2)oc(=O)n3C)cc1` returned a kinetic solubility of 1.6 µg/mL (≈ 5.03 µM). As for `COc1ccc(OCC(O)CN2C(=O)c3ccccc3C2=O)cc1` (configuration not stated), the solubility (kinetic) was over 49.1 µg/mL.

The compound `Cc1cccc(CN2CCN(c3ccc(Cl)cc3)CC2)c1` showed a kinetic solubility of 2 µg/mL (≈ 6.65 µM). Consider `O=C1NC(c2ccc(Cl)cc2)=COc2ccccc21`, for which the solubility (kinetic) turned out to be 1.1 µg/mL (≈ 4.05 µM). On to `O=C(NC1CCC1)C1CCC(=O)N(Cc2ccccc2F)C1` (configuration not stated), for which the kinetic solubility is over 45.7 µg/mL. Take `OCCN1CCN(C(=S)Nc2ccc(SC(F)F)cc2)CC1`: the kinetic solubility was over 52.1 µg/mL. Compound `Cc1ccc(NC(=O)CCN2C(=O)NC(C)(C)C2=O)cc1F` came in with a solubility (kinetic) of over 46.1 µg/mL. For `Cc1ccccc1CSc1ncnc2ccccc12`, the solubility (kinetic) was determined as 0.3 µg/mL (≈ 1.13 µM). `O=C(CSc1ncnc2ccccc12)NC1CCS(=O)(=O)C1` (configuration not stated): the solubility (kinetic) was over 50.6 µg/mL.

Turning to `CC(C)c1ccc(S(=O)(=O)NC2CCCC2)cc1`, the kinetic solubility is over 40.1 µg/mL. Regarding `Cn1c(CN2CCN(S(C)(=O)=O)CC2)nc2cc([N+](=O)[O-])ccc21`, the kinetic solubility is over 53 µg/mL.

Consider `Brc1ccc(CNc2ccc3ncccc3c2)cc1`, for which the solubility (kinetic) is under 0.3 µg/mL. Regarding `Cc1ccc(S(C)(=O)=NC(=O)NC(=O)c2c(Cl)cccc2Cl)cc1` (configuration not stated), the kinetic solubility stood at 41.3 µg/mL (≈ 107 µM).

`Cc1cc(C)nc(N(C#N)Cc2cccc(Cl)c2)n1` displayed a kinetic solubility of 23.6 µg/mL (≈ 86.5 µM). Compound `S=C(NCc1ccccc1)NCc1ccco1` displayed a kinetic solubility of 28.2 µg/mL (≈ 114 µM). Take `COc1ccccc1CNC(=O)c1ccc(NC(=O)CC2SC(N3CCCC3)=NC2=O)cc1` (configuration not stated): the kinetic solubility turned out to be 9.4 µg/mL (≈ 20.1 µM).
